Data published in US20230057568A1, “COMPOUNDS FOR TREATING FAMILIAL DYSAUTONOMIA” (PTC THERAPEUTICS, INC., priority 2019, published 2023).

Tested on: Elongator complex protein 1 (ELP1, also referred to as IKBKAP)
Assay: IKBKAP-HTRF Assay
Type: cell-based, human
Conditions: FD patient-derived fibroblasts GM04589, 48 hours incubation; for EC2x for IKBKAP protein expression (concentration producing two times the amount of IKBKAP protein vs DMSO vehicle control): 7-point concentration curve; for MFI (maximum fold increase in IKBKAP protein abundance relative to the vehicle control): HTRF
In short: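 FD patient cells in DMEM-10% FBS were treated 48 hours at 37 °C with a 7-point, 3.16-fold compound series in triplicate, then lysed. IKBKAP was quantified by sandwich HTRF with two anti-IKAP antibodies, incubated overnight at 4 °C and read at 665/620 nm. MFI is AF relative to vehicle, and EC2× is the concentration doubling IKBKAP versus DMSO.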

| SMILES | EC2x for IKBKAP protein expression (concentration producing two times the amount of IKBKAP protein vs DMSO vehicle control) | MFI (maximum fold increase in IKBKAP protein abundance relative to the vehicle control) |
| --- | --- | --- |
| Cc1c(C[C@H](C)N)sc2c(NCc3cnccn3)nc(Cl)nc12 [Cpd 32, 6-[(2S)-2-aminopropyl]-2-chloro-7-methyl-N-[(pyrazin-2-yl)methyl]thieno[3,2-d]pyrimidin-4-amine] | *** (between >0.02 μM and ≤0.5 μM) | **** (between >3.9 and <4.9) |
| Cc1c(C[C@H](C)N)sc2c(NCc3cncs3)nc(Cl)nc12 [Cpd 74, 6-[(2S)-2-aminopropyl]-2-chloro-7-methyl-N-[(1,3-thiazol-5-yl)methyl]thieno[3,2-d]pyrimidin-4-amine] | *** (between >0.02 μM and ≤0.5 μM) | **** (between >3.9 and <4.9) |
| Cc1c(C[C@H](C)N)sc2c(NCc3ccco3)nc(C3CC3)nc12 [Cpd 17, 6-[(2S)-2-aminopropyl]-2-cyclopropyl-N-[(furan-2-yl)methyl]-7-methylthieno[3,2-d]pyrimidin-4-amine] | * (EC2×>1 μM) | * (MFI<1.9) |
| Cc1c(C[C@H](C)N)sc2c(NCc3ncccc3F)nc(Cl)nc12 [Cpd 59, 6-[(2S)-2-aminopropyl]-2-chloro-N-[(3-fluoropyridin-2-yl)methyl]-7-methylthieno[3,2-d]pyrimidin-4-amine] | *** (between >0.02 μM and ≤0.5 μM) | **** (between >3.9 and <4.9) |
| CCc1nc(NCc2ccco2)c2sc(C[C@H](C)N)c(C)c2n1 [Cpd 16, 6-[(2S)-2-aminopropyl]-2-ethyl-N-[(furan-2-yl)methyl]-7-methylthieno[3,2-d]pyrimidin-4-amine] | *** (between >0.02 μM and ≤0.5 μM) | *** (between >2.9 and <3.9) |
| Clc1nc(NCc2nccs2)c2sccc2n1 [Cpd 96, 2-chloro-N-[(1,3-thiazol-2-yl)methyl]thieno[3,2-d]pyrimidin-4-amine] | * (EC2×>1 μM) | ** (between >1.9 and <2.9) |
| Cc1c(C[C@H](C)N)sc2c(NCc3nc(F)cs3)nc(Cl)nc12 [Cpd 92, 6-[(2S)-2-aminopropyl]-2-chloro-N-[(4-fluoro-1,3-thiazol-2-yl)methyl]-7-methylthieno[3,2-d]pyrimidin-4-amine] | ***** (<0.005 μM) | ***** (>4.9) |
| Cc1c(C[C@H](C)N)sc2c(NCc3ccco3)nc(Br)nc12 [Cpd 38, 6-[(2S)-2-aminopropyl]-2-bromo-N-[(furan-2-yl)methyl]-7-methylthieno[3,2-d]pyrimidin-4-amine] | ***** (<0.005 μM) | ***** (>4.9) |
| C[C@H](N)c1sc2c(NCc3ccco3)nc(Cl)nc2c1-c1ccccc1 [Cpd 58, 6-[(1S)-1-aminoethyl]-2-chloro-N-[(furan-2-yl)methyl]-7-phenylthieno[3,2-d]pyrimidin-4-amine] | * (EC2×>1 μM) | * (MFI<1.9) |
| Clc1nc(NCc2ccco2)c2scc(Br)c2n1 [Cpd 42, 7-bromo-2-chloro-N-[(furan-2-yl)methyl]thieno[3,2-d]pyrimidin-4-amine] | *** (between >0.02 μM and ≤0.5 μM) | ***** (>4.9) |
| C[C@H](N)Cc1cc2nc(Cl)nc(NCc3cccs3)c2s1 [Cpd 14, 6-[(2S)-2-aminopropyl]-2-chloro-N-[(thiophen-2-yl)methyl]thieno[3,2-d]pyrimidin-4-amine] | **** (between >0.005 μM and ≤0.02 μM) | ***** (>4.9) |
| Cc1c(C[C@H](C)N)sc2c(NCc3ncc[nH]3)nc(Cl)nc12 [Cpd 73, 6-[(2S)-2-aminopropyl]-2-chloro-N-[(1H-imidazol-2-yl)methyl]-7-methylthieno[3,2-d]pyrimidin-4-amine] | *** (between >0.02 μM and ≤0.5 μM) | ** (between >1.9 and <2.9) |
| CC[C@H](N)Cc1sc2c(NCc3ccco3)nc(Cl)nc2c1C [Cpd 13, 6-[(2S)-2-aminobutyl]-2-chloro-N-[(furan-2-yl)methyl]-7-methylthieno[3,2-d]pyrimidin-4-amine] | ***** (<0.005 μM) | ***** (>4.9) |
| Cc1c(C[C@H](C)N)sc2c(NCc3c(F)cncc3F)nc(Cl)nc12 [Cpd 64, 6-[(2S)-2-aminopropyl]-2-chloro-N-[(3,5-difluoropyridin-4-yl)methyl]-7-methylthieno[3,2-d]pyrimidin-4-amine] | **** (between >0.005 μM and ≤0.02 μM) | ***** (>4.9) |
| Cc1c(C2CCNC2)sc2c(NCc3ccco3)nc(Cl)nc12 (centres unmarked) [Cpd 57, 2-chloro-N-[(furan-2-yl)methyl]-7-methyl-6-(pyrrolidin-3-yl)thieno[3,2-d]pyrimidin-4-amine] | *** (between >0.02 μM and ≤0.5 μM) | *** (between >2.9 and <3.9) |
| C[C@H](N)Cc1sc2c(NCc3ccncc3F)nc(Cl)nc2c1Br [Cpd 68, 6-[(2S)-2-aminopropyl]-7-bromo-2-chloro-N-[(3-fluoropyridin-4-yl)methyl]thieno[3,2-d]pyrimidin-4-amine] | ***** (<0.005 μM) | ***** (>4.9) |
| Clc1nc(NCc2ccncc2)c2sccc2n1 [Cpd 1, 2-chloro-N-[(pyridin-4-yl)methyl]thieno[3,2-d]pyrimidin-4-amine] | * (EC2×>1 μM) | **** (between >3.9 and <4.9) |
| CC(C)(C)[C@H](N)Cc1cc2nc(Cl)nc(NCc3ccco3)c2s1 [Cpd 7, 6-[(2R)-2-amino-3,3-dimethylbutyl]-2-chloro-N-[(furan-2-yl)methyl]thieno[3,2-d]pyrimidin-4-amine] | ** (between >0.5 μL and ≤1 μM) | * (MFI<1.9) |
| C[C@H](N)Cc1sc2c(NCc3cccs3)nc(Cl)nc2c1Br [Cpd 82, 6-[(2S)-2-aminopropyl]-7-bromo-2-chloro-N-[(thiophen-2-yl)methyl]thieno[3,2-d]pyrimidin-4-amine] | ***** (<0.005 μM) | ***** (>4.9) |
| Clc1nc(NCc2cccs2)c2scc(Br)c2n1 [Cpd 80, 7-bromo-2-chloro-N-[(thiophen-2-yl)methyl]thieno[3,2-d]pyrimidin-4-amine] | *** (between >0.02 μM and ≤0.5 μM) | ***** (>4.9) |
| C[C@H](N)Cc1sc2c(NCc3cccs3)nc(C#N)nc2c1C#N [Cpd 85, 6-[(2S)-2-aminopropyl]-4-{[(thiophen-2-yl)methyl]amino}thieno[3,2-d]pyrimidine-2,7-dicarbonitrile] | *** (between >0.02 μM and ≤0.5 μM) | *** (between >2.9 and <3.9) |
| Cc1c(C[C@H](C)N)sc2c(NCc3ccccc3)nc(Cl)nc12 [Cpd 34, 6-[(2S)-2-aminopropyl]-N-benzyl-2-chloro-7-methylthieno[3,2-d]pyrimidin-4-amine] | ***** (<0.005 μM) | ***** (>4.9) |
| Cc1ccoc1CNc1nc(Cl)nc2c(C)c(C[C@H](C)N)sc12 [Cpd 30, 6-[(2S)-2-aminopropyl]-2-chloro-7-methyl-N-[(3-methylfuran-2-yl)methyl]thieno[3,2-d]pyrimidin-4-amine] | *** (between >0.02 μM and ≤0.5 μM) | **** (between >3.9 and <4.9) |
| Cc1c(C[C@@H]2CCOC(=O)N2)sc2c(NCc3ccco3)nc(Cl)nc12 [Cpd 52, (4S)-4-[(2-chloro-4-{[(furan-2-yl)methyl]amino}-7-methylthieno[3,2-d]pyrimidin-6-yl)methyl]-1,3-oxazinan-2-one] | * (EC2×>1 μM) | ** (between >1.9 and <2.9) |
| C[C@H](N)Cc1cc2ncnc(NCc3ccncc3)c2s1 [Cpd 11, 6-[(2S)-2-aminopropyl]-N-[(pyridin-4-yl)methyl]thieno[3,2-d]pyrimidin-4-amine] | *** (between >0.02 μM and ≤0.5 μM) | **** (between >3.9 and <4.9) |
